Results as given in patent publication US9855265B2, “Methods for treating cancer with TrkA receptor tyrosine kinase antagonists” (VM Oncology LLC, priority 2014, dated 2018).

Experiments:
[1] = test system: carrageenan-induced pain in rats; experiment: Carrageenan Pain Model; type: in vivo, Sprague-Dawley rats; settings: carrageenan rat model, 30 mg/kg, p.o.
Protocol: Carrageenan Pain Model The carrageenan model is a fast, reliable model used to assess the ability of analgesics to block inflammatory pain. The analgesic effects of test article combinations on pain generation are assayed using the carrageenan-induced pain model in rats. Adult male Sprague-Dawley rats are administered study drugs orally (vehicle, compounds of present disclosure) once daily for 2 days (day −2 and day −1) and 30 minutes prior to the carrageenan injection on day 0 (time=0). For the carrageenan injection, animals are lightly anesthetized and 0.1 ml of 2% carrageenan is injected into the plantar surface of the right hind paw. The positive control indomethacin (30 mg/kg, p.o.) is administered orally immediately before the carrageenan injection. Paw volumes (right and left) are measured using a Plethysmometer before drug administration on day −2 and serve as a baseline measurement. The paw volumes are measured again two hours post carrageenan injection. The degree of mechanical allodynia is measured by a blinded observer using Von Frey filaments applied to the plantar surface of the hind paws in an increasing numerical order. Each filament increases the force applied on the paw. The filaments are applied until animal paw withdrawal is achieved. […] Results are expressed as mean change from baseline across five timepoints post carrageenan injection.

[2] = test system: PANC-1 subcutaneous human pancreatic cancer xenografts; experiment: PANC-1 Subcutaneous Human Pancreatic Cancer Xenograft Mouse Model
Protocol: Temperature: 22±3° C. Humidity: 50±20%. Light cycle: 12 hours light and 12 hours dark. Cages: Polycarbonate cages of 300 mm×180 mm×150 mm embedded with the soft wood material were used. The bedding was changed twice a week. Diet: Animals had free access to a certified commercial laboratory diet. Concentrations of contaminants in the diet are routinely analyzed by the manufacturers to ensure the contaminants are below their allowable maximum and thus would not affect the tumor growth.
Water: Animals had free access to sterile drinking water. Cage identification: The identification labels for each cage contained the following information: number of animals, sex, strain, date received, treatment, group number and the starting date of the treatment. Briefly, PANC-1 cell line was originally purchased from the ATCC (CRL-1469) and the PANC-1 primary cell line was derived from the PANC-1 subcutaneously xenograft tumors. The PANC-1 primary cells were maintained in vitro as monolayer culture in DMEM medium supplemented with 10% heat inactivated fetal bovine serum, 100 U/ml penicillin and 100 μg/ml streptomycin and L-glutamine (2 mM) at 37° C. in an atmosphere of 5% CO2 air. The cells growing in exponential phase were harvested and counted for tumor inoculation.
Tumor Cell Inoculation and Randomization. Each animal was inoculated subcutaneously on the right flank with the PANC-1 primary tumor cells (5×10^6/animal) in 0.1 mL of PBS. Tumor development was allowed undisrupted until mean tumor volume reached approximately 85 mm^3. Animals were then randomized into 6 groups, with each group consisting of 8 animals. The test articles were administered to the tumor-bearing animals according to predetermined regimens. […] At the time of routine monitoring, the animals were checked for any effects of tumor growth on normal behavior such as mobility, food and water consumption (by looking only), body weight (BW) gain/loss (BW was measured twice weekly), eye/hair matting and any other abnormal effect. Death and observed clinical signs were recorded on the basis of the numbers of animals within each subset.
Tumor Measurement and the Endpoints: The major endpoint was to evaluate if the tumor growth could be inhibited. Tumor measurement was conducted twice weekly with a caliper and the tumor volume (mm3) is estimated using the formula: TV=a×b^2/2, where a and b are long and short diameters of a tumor, respectively. The tumor sizes were then used for T/C value and TGI (tumor growth inhibition), which are indicators of anti-tumor effectiveness. The T/C value (in percent) is an indication of antitumor effect. T and C are the mean volumes of the treated and control groups, respectively, on a given day. BW change, expressed as %, is calculated using the following formula: BW change (%)=(BW_DayX/BW_Day0)×100, where BW_DayX is BW on a given day, and BW_Day0 was BW on Day 0 (tumor inoculation).
Tumor Sample Collection: Two tumor samples from Group 1, 2 and 3, respectively; six tumor samples from Group 4; five tumor samples from Group 5 and 6, respectively, were snap frozen in liquid nitrogen and kept at −80° C. Total 22 tumor samples were collected.
Statistical Analyses: A one-way ANOVA was performed to compare tumor volumes among groups. All data were analyzed using the SPSS 17.0 software; p<0.05 was considered statistically significant.

[3] = test system: CCI rats, mechanical allodynia; settings: single oral dose
Protocol: Chronic Constriction Injury (CCI) Model of Neuropathic Pain in Rats. […] Chronic constriction injury of the sciatic nerve was produced by tying four loose ligatures around the left sciatic nerve according to the method of Bennett and Xie. […] Calibrated von Frey filaments were used to determine the lowest mechanical (tactile) threshold required to evoke a brisk paw withdrawal reflex in the rat hindpaws. Rats were allowed to acclimatize in wire mesh cages for 15-20 min prior to von Frey testing. Assessment of paw withdrawal thresholds (PWTs) using von Frey filaments was undertaken prior to CCI-surgery (pre-surgery baseline on day 0). Before the drug dosing on day 14, the pre-dose baseline was recorded for each rat. […] Drug-naïve CCI-rats (n=4-6 per group) were used. The oral vehicle was 0.5% CMC-Na/0.1% Tween 80 in distilled water. The positive control gabapentin was dissolved in the vehicle and orally given at 100 mg/kg (by oral gavage). Test compound was suspended in the vehicle and orally given at 50 mg/kg and 100 mg/kg.

COc1ccc2c(c1)c(CC(=O)O)c(C)n2C(=O)c1ccc(Cl)cc1 [indomethacin, reference compound]
analgesic effect [1]: about 100%

Nc1ccn([C@@H]2O[C@H](CO)[C@@H](O)C2(F)F)c(=O)n1 [Gemcitabine, gemcitabine]
TGI (%, D18) ([2]; gemcitabine 10 mg/kg (alone or with Compound-12, see label)): 3%
TGI (%, D18) ([2]; gemcitabine 20 mg/kg (alone or with Compound-12, see label)): 48%
Tumor volume (Mean ± SEM) ([2]; Day 7, gemcitabine 10 mg/kg (alone or with Compound-12, see label)): 83 ± 4 mm^3
Tumor volume (Mean ± SEM) ([2]; Day 7, gemcitabine 20 mg/kg (alone or with Compound-12, see label)): 83 ± 3 mm^3
Tumor volume (Mean ± SEM) ([2]; Day 11, gemcitabine 10 mg/kg (alone or with Compound-12, see label)): 142 ± 12 mm^3
Tumor volume (Mean ± SEM) ([2]; Day 11, gemcitabine 20 mg/kg (alone or with Compound-12, see label)): 109 ± 8 mm^3
Tumor volume (Mean ± SEM) ([2]; Day 14, gemcitabine 20 mg/kg (alone or with Compound-12, see label)): 138 ± 9 mm^3
Tumor volume (Mean ± SEM) ([2]; Day 18, gemcitabine 10 mg/kg (alone or with Compound-12, see label)): 346 ± 21 mm^3
Tumor volume (Mean ± SEM) ([2]; Day 19, gemcitabine 10 mg/kg (alone or with Compound-12, see label)): 374 ± 19 mm^3
Tumor volume (Mean ± SEM) ([2]; Day 19, gemcitabine 20 mg/kg (alone or with Compound-12, see label)): 216 ± 18 mm^3

NCC1(CC(=O)O)CCCCC1 [gabapentin, reference compound]
side effects observed in dosed CCI-rats [3]: drowsiness or motor incoordination
